We go through three compounds from US12221422B2, “Compounds and their use for the treatment of alpha1-antitrypsin deficiency” (CENTESSA PHARMACEUTICALS (UK) LIMITED, priority 2018, dated 2025).

A short description of one series: Pharmacokinetics in rats. The format is in vivo. The settings on record: rat, whole blood, Sprague Dawley rats, iv 2 mg/kg or oral 10 mg/kg; for half-life: read-out: Half-life in blood (t1/2); for clearance: read-out: Observed clearance; for Vd: read-out: Volume of distribution (Vz). The protocol:
Compounds were administered to Sprague Dawley rats intravenously (2 mg/kg) or orally (10 mg/kg) by gavage. Whole blood diluted with water was prepared from these dosed animals over a time course up to 24 hours post dose to allow blood concentrations of drug to be measured by UPLC-MS/MS.

The next series has as its target human Z A1AT (Homo sapiens, UniProt P01009, E366K). Put plainly: A1AT cell secretion assay using HEK-Z cells (ELISA). Type of series: cell-based. Set-up: expressed in transfected cells; host or cells: HEK-Z (HEK-EBNA cells containing the Z A1AT plasmid). The conditions noted are these: HEK-Z cells, 10, 33, 100 and 333 nM, 48 h, cell supernatant. The protocol:
HEK-Z cells, a human embryonic kidney cell line stably transfected with the human Z A1AT gene, were plated into 96 well plates (3.0×10^5 cells/ml with 200 μl of media/well) overnight at 37° C. in a humidified atmosphere containing 5% CO2. Following incubation cells were washed with 200 μl serum-free media three times and media was replaced with treatments in quadruplicate using serum-free media containing either vehicle, 10 μM suberanilohydroxamic acid (SAHA), N,N-dimethyl-4-((6-oxopyrimidin-1(6H)-yl)methyl)benzamide (at concentrations of 10, 33, 100 and 333 nM), N,N-(bis-methyl-d3)-4-((6-oxopyrimidin-1(6H)-yl)methyl)benzamide (at concentrations of 10, 33, 100 and 333 nM) or N-methyl-4-((6-oxopyrimidin-1(6H)-yl)methyl)benzamide (at concentrations of 10, 33, 100 and 333 nM) for 48 h in a 37° C. incubator in a final volume of 200 μl. At the end of the incubation step the supernatants were removed from the wells, centrifuged at 1000×g at 4° C. for 10 min and were assayed for human A1AT levels by ELISA (Human Serpin A1/α1-antitrypsin duo set ELISA, R& D Systems, DY1268) per manufacturer's instructions.
Briefly, a 96 well plate was coated with human A1AT capture antibody overnight at room temperature (1:180 dilution from stock, 100 μl final volume/well). The capture antibody was then removed and wells washed three times with 300 μl wash buffer (0.05% Tween 20 in PBS) and then 200 μl reagent diluent ([…]) was incubated in each well for 1 h at room temperature. […] After which, 50 μl stop solution (2M H2SO4) was added and optical density (OD) of each well was read at 450 nm with 570 nm blank subtracted from each well using a microplate reader. A 4 parameter logistic curve was constructed using GraphPad Prism 7 and A1AT concentrations were determined in each sample by interpolation from a standard curve and multiplying by the appropriate dilution factor.
(§1) The amount of A1AT secreted from transfected HEK-EBNA cells into the media was measured by ELISA. […]
Background: In an ELISA, binding on a coated surface is turned into a signal by an enzyme label.

The next series has as its target T1, human M A1AT (Homo sapiens, UniProt P01009).
T1 construct: expressed in transfected cells; host or cells: HEK-M (HEK-EBNA cells containing the M A1AT plasmid)
As to the kind of experiment: A1AT cell secretion assay using HEK-M cells (ELISA). The format is cell-based. The conditions noted are these: 10 μM, 48 h. On the procedure:
HEK-M cells, a human embryonic kidney cell line stably transfected with the human M A1AT gene, were plated into 96 well plates (3.0×10^5 cells/ml with 200 μl of media/well) overnight at 37° C. in a humidified atmosphere containing 5% CO2. Following incubation cells were washed with 200 μl serum-free media three times and media was replaced with serum-free media containing either vehicle, 10 μM suberanilohydroxamic acid (SAHA) or a compound of the invention (at 10 μM) in replicates of six for 48 h in a 37° C. incubator in a final volume of 200 μl. […]
(§2) Briefly, a 96 well plate was coated with human A1AT capture antibody overnight at room temperature (1:180 dilution from stock, 100 μl final volume/well). […] After which, 50 μl stop solution (2M H2SO4) was added and optical density (OD) of each well was read at 450 nm with 570 nm blank subtracted from each well using a microplate reader. A 4 parameter logistic curve was constructed using GraphPad Prism 7 and A1AT concentrations were determined in each sample by interpolation from a standard curve and multiplying by the appropriate dilution factor.
as §1

A further series deals with T2, human Siiyama A1AT (Homo sapiens, UniProt P01009, S77F).
T2 construct: expressed in transfected cells; host or cells: HEK-Siiyama (HEK-EBNA cells containing the Siiyama A1AT plasmid)
T2 sequence (P01009 25-418 S77F): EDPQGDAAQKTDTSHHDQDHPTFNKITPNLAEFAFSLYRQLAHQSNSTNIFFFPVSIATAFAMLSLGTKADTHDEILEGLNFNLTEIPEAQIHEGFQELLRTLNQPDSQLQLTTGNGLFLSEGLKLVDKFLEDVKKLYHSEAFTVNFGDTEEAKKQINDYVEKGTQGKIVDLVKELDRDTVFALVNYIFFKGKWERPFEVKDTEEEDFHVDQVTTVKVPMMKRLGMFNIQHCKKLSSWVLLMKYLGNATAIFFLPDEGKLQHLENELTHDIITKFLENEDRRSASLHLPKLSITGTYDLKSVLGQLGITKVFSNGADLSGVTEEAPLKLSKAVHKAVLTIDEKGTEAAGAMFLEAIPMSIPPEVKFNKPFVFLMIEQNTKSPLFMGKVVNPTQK
As to the kind of experiment: A1AT cell secretion assay using HEK-Siiyama cells (ELISA). The format is cell-based. The conditions noted are these: 10 μM, 48 h, positive control. The protocol:
HEK-Siiyama cells, a human embryonic kidney cell line stably transfected with the human Siiyama A1AT gene, were plated into 96 well plates (3.0×10^5 cells/ml with 200 μl of media/well) overnight at 37° C. in a humidified atmosphere containing 5% CO2. Following incubation cells were washed with 200 μl serum-free media three times and media was replaced with serum-free media containing either vehicle, 10 μM suberanilohydroxamic acid (SAHA) or a compound of the invention (at 1 or 10 μM) in replicates of eight for 48 h in a 37° C. incubator in a final volume of 200 μl. […]
as §2
The amount of human A1AT secreted from transfected HEK-EBNA cells into the media was measured by ELISA. […]

Structures are written as SMILES.

Sequence of human Z A1AT (P01009 25-418 E366K): as the sequence (P01009 25-418 S77F) above, with F53S, E342K counted along it
T1 sequence (P01009 25-418): as the sequence (P01009 25-418 S77F) above, with F53S counted along it

On to `[2H]C([2H])([2H])N(C(=O)c1ccc(Cn2cnccc2=O)cc1)C([2H])([2H])[2H]` [N,N-(bis-methyl-d3)-4-((6-oxopyrimidin-1(6H)-yl)methyl)benzamide], for which, in the series “Pharmacokinetics in rats”, the half-life came out at 52 min, the clearance turned out to be 10.6 mL/min/kg and the Vd turned out to be 0.72 L/kg. On human Z A1AT, the “secretion of Z A1AT as measured by ELISA” value is reported as “stimulates secretion of Z A1AT in a dose dependent manner”.

As for `CNC(=O)c1ccc(Cn2cnccc2=O)cc1` [N-methyl-4-((6-oxopyrimidin-1(6H)-yl)methyl)benzamide], in the series “Pharmacokinetics in rats”, the half-life was 63 min, the clearance worked out at 10.6 mL/min/kg and the Vd came to 1 L/kg. Moreover, the “secretion of Z A1AT as measured by ELISA” value at human Z A1AT was “stimulates secretion of Z A1AT in a dose dependent manner”.

Take `O=C(CCCCCCC(=O)Nc1ccccc1)NO` [SAHA, suberanilohydroxamic acid, reference compound]: the “secretion of M A1AT as measured by ELISA” value at human M A1AT was “stimulates an increase in M A1AT secretion”. In addition, on human Siiyama A1AT, the “secretion of Siiyama A1AT as measured by ELISA” value is “stimulates an increase in Siiyama A1AT secretion”.
